In PubChem BioAssay AID1259407 (Chemical Carcinogenesis Research Information System (CCRIS), 2018):
Activity calls are given as the source filed them. How the calls were made is not given here.

System: CCRIS mutagenicity, Ames/micronucleus/aberration tests
Experiment: CCRIS mutagenicity studies
[1] = Test System: AMES SALMONELLA TYPHIMURIUM, Strain/Indicator: TA100, Metabolic Activation: NONE, Method: PREINCUBATION

In the case of O=C1C[C@@H]2NCCCNCCCCN(CCCN1)C(=O)[C@@H]1c3cc2ccc3O[C@H]1c1ccc(O)cc1, the mutagenic call (Test System: AMES SALMONELLA TYPHIMURIUM, Strain/Indicator: TA97A, Metabolic Activation: NONE) is reported as “inactive; negative”, the mutagenic call (Test System: AMES SALMONELLA TYPHIMURIUM, Strain/Indicator: TA97A, Metabolic Activation: RAT, LIVER, S-9) is reported as “inactive; negative” and the mutagenic call (Test System: AMES SALMONELLA TYPHIMURIUM, Strain/Indicator: TA98, Metabolic Activation: NONE) is reported as “active; positive”. The mutagenic call (Test System: AMES SALMONELLA TYPHIMURIUM, Strain/Indicator: TA98, Metabolic Activation: RAT, LIVER, S-9) was “active; positive”, the mutagenic call (Test System: AMES SALMONELLA TYPHIMURIUM, Strain/Indicator: TA100, Metabolic Activation: NONE) was “active; positive” and the mutagenic call (Test System: AMES SALMONELLA TYPHIMURIUM, Strain/Indicator: TA100, Metabolic Activation: RAT, LIVER, S-9) was “active; positive”.
In the case of C[C@]12C=CC(=O)C=C1CC[C@@H]1[C@@H]2C(=O)C[C@@]2(C)[C@H]1CC[C@]2(O)C(=O)CO, the mutagenic call (Test System: AMES SALMONELLA TYPHIMURIUM, Strain/Indicator: TA98, Metabolic Activation: HAMSTER, LIVER, S-9, AROCLOR 1254 (10%), Method: STANDARD PLATE) is reported as “inactive; negative”, the mutagenic call (Test System: AMES SALMONELLA TYPHIMURIUM, Strain/Indicator: TA98, Metabolic Activation: NONE, Method: STANDARD PLATE) is reported as “inactive; negative” and the mutagenic call (Test System: AMES SALMONELLA TYPHIMURIUM, Strain/Indicator: TA98, Metabolic Activation: RAT, LIVER, S-9, AROCLOR 1254 (10%), Method: STANDARD PLATE) is reported as “inactive; negative”. The mutagenic call (Test System: AMES SALMONELLA TYPHIMURIUM, Strain/Indicator: TA100, Metabolic Activation: HAMSTER, LIVER, S-9, AROCLOR 1254 (10%), Method: STANDARD PLATE) was “inactive; negative”, the mutagenic call (Test System: AMES SALMONELLA TYPHIMURIUM, Strain/Indicator: TA100, Metabolic Activation: NONE, Method: STANDARD PLATE) was “inactive; negative” and the mutagenic call (Test System: AMES SALMONELLA TYPHIMURIUM, Strain/Indicator: TA100, Metabolic Activation: RAT, LIVER, S-9, AROCLOR 1254 (10%), Method: STANDARD PLATE) was “inactive; negative”. The mutagenic call (Test System: AMES SALMONELLA TYPHIMURIUM, Strain/Indicator: TA1535, Metabolic Activation: HAMSTER, LIVER, S-9, AROCLOR 1254 (10%), Method: STANDARD PLATE) was “inactive; negative”, the mutagenic call (Test System: AMES SALMONELLA TYPHIMURIUM, Strain/Indicator: TA1535, Metabolic Activation: NONE, Method: STANDARD PLATE) was “inactive; negative” and the mutagenic call (Test System: AMES SALMONELLA TYPHIMURIUM, Strain/Indicator: TA1535, Metabolic Activation: RAT, LIVER, S-9, AROCLOR 1254 (10%), Method: STANDARD PLATE) was “inactive; negative”. The mutagenic call (Test System: AMES SALMONELLA TYPHIMURIUM, Strain/Indicator: TA1537, Metabolic Activation: HAMSTER, LIVER, S-9, AROCLOR 1254 (10%), Method: STANDARD PLATE) was “inactive; negative”, the mutagenic call (Test System: AMES SALMONELLA TYPHIMURIUM, Strain/Indicator: TA1537, Metabolic Activation: NONE, Method: STANDARD PLATE) was “inactive; negative” and the mutagenic call (Test System: AMES SALMONELLA TYPHIMURIUM, Strain/Indicator: TA1537, Metabolic Activation: RAT, LIVER, S-9, AROCLOR 1254 (10%), Method: STANDARD PLATE) was “inactive; negative”. The mutagenic call (Test System: AMES SALMONELLA TYPHIMURIUM, Strain/Indicator: TA1538, Metabolic Activation: HAMSTER, LIVER, S-9, AROCLOR 1254 (10%), Method: STANDARD PLATE) was “inactive; negative”, the mutagenic call (Test System: AMES SALMONELLA TYPHIMURIUM, Strain/Indicator: TA1538, Metabolic Activation: NONE, Method: STANDARD PLATE) was “inactive; negative” and the mutagenic call (Test System: AMES SALMONELLA TYPHIMURIUM, Strain/Indicator: TA1538, Metabolic Activation: RAT, LIVER, S-9, AROCLOR 1254 (10%), Method: STANDARD PLATE) was “inactive; negative”. For the same compound, the mutagenic call (Test System: MOUSE LYMPHOMA, Strain/Indicator: L5178Y (TK+/TK-), Metabolic Activation: NONE, Method: SUSPENSION/PLATE) was “inactive; negative. reevaluation of results: negative” and the mutagenic call (Test System: MOUSE LYMPHOMA, Strain/Indicator: L5178Y (TK+/TK-), Metabolic Activation: RAT, LIVER, S-9, AROCLOR 1254, Method: SUSPENSION/PLATE) was “inactive; negative. reevaluation of results: inconclusive”.
For OCCN1CC1, the mutagenic call (Test System: CHINESE HAMSTER V-79, Strain/Indicator: V-79/6-THIOGUANINE, Metabolic Activation: NONE, Method: FLASK ASSAY) was “active; positive”.
With CCCN=NC(C)(C)OO the mutagenic call (Test System: AMES SALMONELLA TYPHIMURIUM, Strain/Indicator: TA1535, Metabolic Activation: NONE) was “active; positive” and the mutagenic call (Test System: E. COLI, Strain/Indicator: WP2 (HCR-), Metabolic Activation: NONE) was “active; positive”.
With Cc1ccc(Br)cc1 the mutagenic call (Test System: AMES SALMONELLA TYPHIMURIUM, Strain/Indicator: TA97, Metabolic Activation: HAMSTER, LIVER, S-9, AROCLOR 1254 (10%), Method: PREINCUBATION) was “inactive; negative”, the mutagenic call (Test System: AMES SALMONELLA TYPHIMURIUM, Strain/Indicator: TA97, Metabolic Activation: HAMSTER, LIVER, S-9, AROCLOR 1254 (30%), Method: PREINCUBATION) was “inactive; negative” and the mutagenic call (Test System: AMES SALMONELLA TYPHIMURIUM, Strain/Indicator: TA97, Metabolic Activation: NONE, Method: PREINCUBATION) was “inactive; negative”. The mutagenic call (Test System: AMES SALMONELLA TYPHIMURIUM, Strain/Indicator: TA97, Metabolic Activation: RAT, LIVER, S-9, AROCLOR 1254 (10%), Method: PREINCUBATION) was “inactive; negative”, the mutagenic call (Test System: AMES SALMONELLA TYPHIMURIUM, Strain/Indicator: TA97, Metabolic Activation: RAT, LIVER, S-9, AROCLOR 1254 (30%), Method: PREINCUBATION) was “inactive; negative” and the mutagenic call (Test System: AMES SALMONELLA TYPHIMURIUM, Strain/Indicator: TA98, Metabolic Activation: HAMSTER, LIVER, S-9, AROCLOR 1254 (10%), Method: PREINCUBATION) was “inactive; negative”. The mutagenic call (Test System: AMES SALMONELLA TYPHIMURIUM, Strain/Indicator: TA98, Metabolic Activation: HAMSTER, LIVER, S-9, AROCLOR 1254 (30%), Method: PREINCUBATION) was “inactive; negative”, the mutagenic call (Test System: AMES SALMONELLA TYPHIMURIUM, Strain/Indicator: TA98, Metabolic Activation: NONE, Method: PREINCUBATION) was “inactive; negative” and the mutagenic call (Test System: AMES SALMONELLA TYPHIMURIUM, Strain/Indicator: TA98, Metabolic Activation: RAT, LIVER, S-9, AROCLOR 1254 (10%), Method: PREINCUBATION) was “inactive; negative”. For the same compound, the mutagenic call (Test System: AMES SALMONELLA TYPHIMURIUM, Strain/Indicator: TA98, Metabolic Activation: RAT, LIVER, S-9, AROCLOR 1254 (30%), Method: PREINCUBATION) was “inactive; negative”, the mutagenic call (Test System: AMES SALMONELLA TYPHIMURIUM, Strain/Indicator: TA100, Metabolic Activation: HAMSTER, LIVER, S-9, AROCLOR 1254 (10%), Method: PREINCUBATION) was “inactive; negative” and the mutagenic call (Test System: AMES SALMONELLA TYPHIMURIUM, Strain/Indicator: TA100, Metabolic Activation: HAMSTER, LIVER, S-9, AROCLOR 1254 (30%), Method: PREINCUBATION) was “inactive; negative”. The mutagenic call [1] was “inactive; negative”, the mutagenic call (Test System: AMES SALMONELLA TYPHIMURIUM, Strain/Indicator: TA100, Metabolic Activation: RAT, LIVER, S-9, AROCLOR 1254 (10%), Method: PREINCUBATION) was “inactive; negative” and the mutagenic call (Test System: AMES SALMONELLA TYPHIMURIUM, Strain/Indicator: TA100, Metabolic Activation: RAT, LIVER, S-9, AROCLOR 1254 (30%), Method: PREINCUBATION) was “inactive; negative”. For the same compound, the mutagenic call (Test System: AMES SALMONELLA TYPHIMURIUM, Strain/Indicator: TA1535, Metabolic Activation: HAMSTER, LIVER, S-9, AROCLOR 1254 (10%), Method: PREINCUBATION) was “inactive; negative”, the mutagenic call (Test System: AMES SALMONELLA TYPHIMURIUM, Strain/Indicator: TA1535, Metabolic Activation: HAMSTER, LIVER, S-9, AROCLOR 1254 (30%), Method: PREINCUBATION) was “inactive; negative” and the mutagenic call (Test System: AMES SALMONELLA TYPHIMURIUM, Strain/Indicator: TA1535, Metabolic Activation: NONE, Method: PREINCUBATION) was “inactive; negative”. The mutagenic call (Test System: AMES SALMONELLA TYPHIMURIUM, Strain/Indicator: TA1535, Metabolic Activation: RAT, LIVER, S-9, AROCLOR 1254 (10%), Method: PREINCUBATION) was “inactive; negative”, the mutagenic call (Test System: AMES SALMONELLA TYPHIMURIUM, Strain/Indicator: TA1535, Metabolic Activation: RAT, LIVER, S-9, AROCLOR 1254 (30%), Method: PREINCUBATION) was “inactive; negative” and the mutagenic call (Test System: AMES SALMONELLA TYPHIMURIUM, Strain/Indicator: TA1537, Metabolic Activation: HAMSTER, LIVER, S-9, AROCLOR 1254 (30%), Method: PREINCUBATION) was “inactive; negative”. For the same compound, the mutagenic call (Test System: AMES SALMONELLA TYPHIMURIUM, Strain/Indicator: TA1537, Metabolic Activation: NONE, Method: PREINCUBATION) was “inactive; negative” and the mutagenic call (Test System: AMES SALMONELLA TYPHIMURIUM, Strain/Indicator: TA1537, Metabolic Activation: RAT, LIVER, S-9, AROCLOR 1254 (30%), Method: PREINCUBATION) was “inactive; negative”.
O=NSCCO was tested, and the mutagenic call [1] was “active; positive”.
